# Test results published in ChEMBL document CHEMBL5465560, “Selectivity Literature for EUbOPEN Chemogenomic Library” (2024).
# What was measured:
# [1] = test system: Tyrosine-protein kinase ABL1 (Homo sapiens), P00519 [F317L]; experiment: Selectivity interaction (KinomeScan (DiscoverX)) EUB0000229b ABL1; conditions: at 1 µM
# [2] = target: Histamine H4 receptor (Homo sapiens) (UniProt Q9H3N8); experiment: Selectivity interaction (GPCR panel (PDSP screen)) EUB0001079a HRH4; conditions: at 10 µM
# [3] = target: Calcium/calmodulin-dependent protein kinase type 1D (Homo sapiens) (UniProt Q8IU85); experiment: Selectivity interaction (KinomeScan (DiscoverX)) EUB0000666a CAMK1D; conditions: at 10 µM
# Calcium/calmodulin-dependent protein kinase type 1D (Homo sapiens), sequence (Q8IU85 whole entry, looked up): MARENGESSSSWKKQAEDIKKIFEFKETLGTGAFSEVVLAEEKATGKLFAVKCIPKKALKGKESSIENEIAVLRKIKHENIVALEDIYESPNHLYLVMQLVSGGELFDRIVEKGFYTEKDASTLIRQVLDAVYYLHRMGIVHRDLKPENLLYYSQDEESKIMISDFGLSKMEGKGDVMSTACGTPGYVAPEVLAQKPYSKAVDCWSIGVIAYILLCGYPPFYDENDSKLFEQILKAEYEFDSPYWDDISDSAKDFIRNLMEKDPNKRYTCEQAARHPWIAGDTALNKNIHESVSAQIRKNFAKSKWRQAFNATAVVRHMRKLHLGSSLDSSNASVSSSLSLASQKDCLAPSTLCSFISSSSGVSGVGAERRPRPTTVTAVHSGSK
# [4] = target: T1, Mitogen-activated protein kinase kinase kinase kinase 4 (Homo sapiens, UniProt O95819); experiment: Selectivity interaction (KinomeScan (DiscoverX)) EUB0000666a MAP4K4; conditions: at 10 µM
# T1 sequence (O95819 2-1239 limits assumed): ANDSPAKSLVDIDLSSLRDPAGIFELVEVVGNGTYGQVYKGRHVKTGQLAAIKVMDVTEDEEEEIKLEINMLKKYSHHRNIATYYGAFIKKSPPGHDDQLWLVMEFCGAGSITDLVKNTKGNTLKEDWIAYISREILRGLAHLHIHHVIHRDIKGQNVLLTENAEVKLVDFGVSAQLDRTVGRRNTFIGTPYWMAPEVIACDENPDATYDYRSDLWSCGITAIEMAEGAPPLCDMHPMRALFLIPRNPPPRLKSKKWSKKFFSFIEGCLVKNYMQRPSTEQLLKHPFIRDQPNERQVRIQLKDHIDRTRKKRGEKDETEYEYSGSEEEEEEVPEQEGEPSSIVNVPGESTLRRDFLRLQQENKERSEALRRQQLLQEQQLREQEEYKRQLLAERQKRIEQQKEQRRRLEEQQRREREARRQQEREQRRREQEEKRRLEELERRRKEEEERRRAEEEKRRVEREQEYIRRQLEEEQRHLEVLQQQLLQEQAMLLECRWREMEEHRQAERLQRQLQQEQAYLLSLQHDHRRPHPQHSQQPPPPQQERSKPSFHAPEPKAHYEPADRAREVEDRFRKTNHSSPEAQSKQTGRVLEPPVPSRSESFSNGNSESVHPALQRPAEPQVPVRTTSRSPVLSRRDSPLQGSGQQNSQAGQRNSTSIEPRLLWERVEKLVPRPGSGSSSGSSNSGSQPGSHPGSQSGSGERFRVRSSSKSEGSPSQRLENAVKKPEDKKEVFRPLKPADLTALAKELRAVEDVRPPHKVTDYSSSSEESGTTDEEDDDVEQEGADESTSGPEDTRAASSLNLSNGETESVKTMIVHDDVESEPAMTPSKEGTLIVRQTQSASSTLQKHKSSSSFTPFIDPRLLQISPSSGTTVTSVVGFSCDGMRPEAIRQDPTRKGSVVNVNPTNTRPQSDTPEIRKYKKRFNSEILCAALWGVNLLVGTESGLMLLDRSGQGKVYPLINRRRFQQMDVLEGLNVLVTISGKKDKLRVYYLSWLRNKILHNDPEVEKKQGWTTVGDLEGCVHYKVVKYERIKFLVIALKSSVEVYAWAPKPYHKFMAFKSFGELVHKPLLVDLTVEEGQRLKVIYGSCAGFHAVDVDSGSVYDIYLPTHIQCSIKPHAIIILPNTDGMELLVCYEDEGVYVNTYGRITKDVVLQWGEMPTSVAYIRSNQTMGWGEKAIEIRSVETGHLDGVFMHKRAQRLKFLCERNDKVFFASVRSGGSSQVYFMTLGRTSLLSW
# [5] = target: Transient receptor potential cation channel subfamily M member 6 (Homo sapiens) (UniProt Q9BX84); conditions: at 10 µM
# [6] = target: T1, Mitogen-activated protein kinase kinase kinase kinase 4; conditions: at 10 µM
# [7] = test system: Tyrosine-protein kinase ABL1 (Homo sapiens), P00519 [H396P]; experiment: Selectivity interaction (KinomeScan (DiscoverX)) EUB0001049a ABL1; conditions: at 1 µM
# [8] = target: Serine/threonine-protein kinase PAK 1 (Homo sapiens) (UniProt Q13153); experiment: Selectivity interaction (KinomeScan (DiscoverX)) EUB0001049a PAK1; conditions: at 1 µM
# Serine/threonine-protein kinase PAK 1 (Homo sapiens), sequence (Q13153 whole entry): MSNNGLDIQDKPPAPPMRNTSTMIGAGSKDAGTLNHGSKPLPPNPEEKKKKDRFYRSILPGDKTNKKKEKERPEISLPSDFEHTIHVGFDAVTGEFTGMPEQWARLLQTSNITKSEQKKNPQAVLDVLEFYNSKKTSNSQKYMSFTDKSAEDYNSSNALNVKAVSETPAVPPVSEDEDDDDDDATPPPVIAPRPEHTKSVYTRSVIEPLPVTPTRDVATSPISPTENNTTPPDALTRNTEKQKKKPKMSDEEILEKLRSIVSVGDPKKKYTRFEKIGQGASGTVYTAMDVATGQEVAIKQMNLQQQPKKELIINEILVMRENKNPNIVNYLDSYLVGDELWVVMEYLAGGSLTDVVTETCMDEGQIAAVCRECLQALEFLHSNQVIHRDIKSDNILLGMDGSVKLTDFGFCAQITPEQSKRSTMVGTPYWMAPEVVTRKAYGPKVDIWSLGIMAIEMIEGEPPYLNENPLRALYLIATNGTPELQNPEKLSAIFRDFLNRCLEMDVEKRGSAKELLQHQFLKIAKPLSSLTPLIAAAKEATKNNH
# [9] = target: Angiopoietin-1 receptor (Homo sapiens) (UniProt Q02763); experiment: Selectivity interaction (KinomeScan (DiscoverX)) EUB0001619a TEK; conditions: at 1 µM
# [10] = target: Misshapen-like kinase 1 (Homo sapiens, UniProt Q8N4C8); experiment: Selectivity interaction (Kinase panel (literature)) EUB0001199aCl MINK1; conditions: at 1 µM
# [11] = target: Protein kinase C beta type (Homo sapiens, UniProt P05771); experiment: Selectivity interaction (SelectScreen profiling (Invitrogen)) EUB0000607a PRKCB; conditions: at 2 µM
# [12] = target: T2, Casein kinase I isoform alpha-like (Homo sapiens) (UniProt Q8N752); experiment: Selectivity interaction (KinomeScan (DiscoverX)) EUB0000607a CSNK1A1L; conditions: at 10 µM
# T2 sequence (whole entry): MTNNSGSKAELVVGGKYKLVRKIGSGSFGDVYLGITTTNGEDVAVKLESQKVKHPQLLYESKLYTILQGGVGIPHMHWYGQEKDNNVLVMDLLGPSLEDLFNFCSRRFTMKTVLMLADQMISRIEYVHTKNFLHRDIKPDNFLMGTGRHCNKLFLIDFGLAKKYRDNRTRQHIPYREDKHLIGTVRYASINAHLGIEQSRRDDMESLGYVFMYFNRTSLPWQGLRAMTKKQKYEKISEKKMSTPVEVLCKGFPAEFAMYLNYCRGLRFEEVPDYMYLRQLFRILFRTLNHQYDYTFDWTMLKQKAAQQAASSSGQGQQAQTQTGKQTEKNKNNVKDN
# [13] = target: T3, Dual specificity mitogen-activated protein kinase kinase 5 (Homo sapiens) (UniProt Q13163); experiment: Selectivity interaction (KinomeScan (DiscoverX)) EUB0000618a MAP2K5; conditions: at 10 µM
# T3 sequence (whole entry): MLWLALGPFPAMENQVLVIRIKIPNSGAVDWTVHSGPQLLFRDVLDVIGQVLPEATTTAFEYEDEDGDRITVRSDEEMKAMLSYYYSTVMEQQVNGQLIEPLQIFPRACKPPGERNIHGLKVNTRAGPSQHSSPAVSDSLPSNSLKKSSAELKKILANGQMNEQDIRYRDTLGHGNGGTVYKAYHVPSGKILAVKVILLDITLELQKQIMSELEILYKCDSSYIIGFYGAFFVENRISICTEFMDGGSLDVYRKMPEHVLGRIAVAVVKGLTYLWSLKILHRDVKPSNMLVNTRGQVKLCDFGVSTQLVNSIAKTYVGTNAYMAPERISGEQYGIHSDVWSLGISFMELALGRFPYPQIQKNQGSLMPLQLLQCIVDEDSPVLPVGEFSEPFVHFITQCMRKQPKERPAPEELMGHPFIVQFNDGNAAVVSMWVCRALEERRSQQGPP
# [14] = target: Serine/threonine-protein kinase 25 (Homo sapiens) (UniProt O00506); experiment: Selectivity interaction (ActivX KiNativ screen (kinase selectivity in THP-1 cell lysates)) EUB0000639a STK25; format: subcellular; conditions: lysate
# Serine/threonine-protein kinase 25 (Homo sapiens), sequence (O00506 whole entry, looked up): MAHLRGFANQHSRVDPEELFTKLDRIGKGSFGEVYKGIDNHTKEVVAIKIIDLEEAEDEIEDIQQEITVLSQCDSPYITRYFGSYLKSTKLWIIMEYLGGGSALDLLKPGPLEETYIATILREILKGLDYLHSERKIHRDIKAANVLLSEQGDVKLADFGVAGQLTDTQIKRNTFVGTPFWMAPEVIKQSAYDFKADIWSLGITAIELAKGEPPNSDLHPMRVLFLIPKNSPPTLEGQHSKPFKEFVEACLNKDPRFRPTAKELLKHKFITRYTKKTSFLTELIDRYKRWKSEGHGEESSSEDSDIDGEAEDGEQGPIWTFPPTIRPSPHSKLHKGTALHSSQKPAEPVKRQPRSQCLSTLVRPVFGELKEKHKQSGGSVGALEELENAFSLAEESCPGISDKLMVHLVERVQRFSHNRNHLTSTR
# [15] = target: Microtubule-associated serine/threonine-protein kinase 1 (Homo sapiens) (UniProt Q9Y2H9); experiment: Selectivity interaction (ActivX KiNativ screen (kinase selectivity in THP-1 cell lysates)) EUB0000639a MAST1; format: subcellular; conditions: lysate
# Microtubule-associated serine/threonine-protein kinase 1 (Homo sapiens), sequence (Q9Y2H9 whole entry, looked up): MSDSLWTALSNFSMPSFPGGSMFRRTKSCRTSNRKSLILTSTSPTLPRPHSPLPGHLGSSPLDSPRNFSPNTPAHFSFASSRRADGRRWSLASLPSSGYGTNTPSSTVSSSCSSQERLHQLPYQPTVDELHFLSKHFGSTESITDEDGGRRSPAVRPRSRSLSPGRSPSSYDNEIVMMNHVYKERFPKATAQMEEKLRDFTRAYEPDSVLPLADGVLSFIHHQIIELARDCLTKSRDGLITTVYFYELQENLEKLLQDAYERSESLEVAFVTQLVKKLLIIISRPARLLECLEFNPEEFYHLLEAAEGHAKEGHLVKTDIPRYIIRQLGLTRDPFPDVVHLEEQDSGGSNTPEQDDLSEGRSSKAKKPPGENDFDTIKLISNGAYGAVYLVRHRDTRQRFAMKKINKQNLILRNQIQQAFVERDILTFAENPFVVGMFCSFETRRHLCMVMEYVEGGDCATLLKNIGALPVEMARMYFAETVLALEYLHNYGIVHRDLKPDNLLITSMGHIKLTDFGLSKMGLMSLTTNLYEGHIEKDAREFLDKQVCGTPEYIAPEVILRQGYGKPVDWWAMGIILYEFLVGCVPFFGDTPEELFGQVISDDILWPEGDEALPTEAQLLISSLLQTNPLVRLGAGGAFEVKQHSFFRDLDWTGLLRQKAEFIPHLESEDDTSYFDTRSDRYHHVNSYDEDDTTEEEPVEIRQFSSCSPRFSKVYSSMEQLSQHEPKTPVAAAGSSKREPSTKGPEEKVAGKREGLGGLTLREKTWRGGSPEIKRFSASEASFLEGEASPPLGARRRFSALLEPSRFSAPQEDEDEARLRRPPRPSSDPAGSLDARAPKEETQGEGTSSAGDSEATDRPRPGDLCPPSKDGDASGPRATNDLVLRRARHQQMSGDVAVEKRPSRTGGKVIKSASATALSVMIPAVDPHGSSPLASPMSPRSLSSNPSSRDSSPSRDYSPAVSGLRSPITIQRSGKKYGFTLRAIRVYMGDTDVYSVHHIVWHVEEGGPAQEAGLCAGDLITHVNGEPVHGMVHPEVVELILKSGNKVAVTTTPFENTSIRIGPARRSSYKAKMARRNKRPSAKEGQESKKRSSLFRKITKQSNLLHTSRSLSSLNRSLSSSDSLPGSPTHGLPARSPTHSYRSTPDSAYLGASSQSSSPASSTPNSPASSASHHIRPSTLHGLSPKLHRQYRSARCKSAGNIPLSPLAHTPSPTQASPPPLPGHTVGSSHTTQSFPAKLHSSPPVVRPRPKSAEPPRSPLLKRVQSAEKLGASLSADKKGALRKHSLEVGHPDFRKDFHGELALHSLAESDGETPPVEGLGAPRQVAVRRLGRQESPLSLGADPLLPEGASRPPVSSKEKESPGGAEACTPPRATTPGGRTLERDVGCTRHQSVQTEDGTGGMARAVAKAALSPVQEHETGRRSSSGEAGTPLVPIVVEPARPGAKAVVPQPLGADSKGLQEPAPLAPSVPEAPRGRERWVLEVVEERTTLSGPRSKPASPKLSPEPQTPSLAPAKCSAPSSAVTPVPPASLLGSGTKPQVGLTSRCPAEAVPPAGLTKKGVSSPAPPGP
# [16] = target: Leucine-rich repeat serine/threonine-protein kinase 2 (Homo sapiens, UniProt Q5S007); experiment: (§1) Selectivity interaction (KinomeScan (DiscoverX)) EUB0000655a LRRK2; conditions: at 10 µM
# [17] = test system: Leucine-rich repeat serine/threonine-protein kinase 2 (Homo sapiens), Q5S007 [G2019S]; experiment: as §1; conditions: at 10 µM
# [18] = target: Phosphatidylinositol 4-phosphate 5-kinase type-1 alpha (Homo sapiens) (UniProt Q99755); experiment: Selectivity interaction (KinomeScan (DiscoverX)) EUB0000655a PIP5K1A; conditions: at 10 µM
# Phosphatidylinositol 4-phosphate 5-kinase type-1 alpha (Homo sapiens), sequence (Q99755 whole entry): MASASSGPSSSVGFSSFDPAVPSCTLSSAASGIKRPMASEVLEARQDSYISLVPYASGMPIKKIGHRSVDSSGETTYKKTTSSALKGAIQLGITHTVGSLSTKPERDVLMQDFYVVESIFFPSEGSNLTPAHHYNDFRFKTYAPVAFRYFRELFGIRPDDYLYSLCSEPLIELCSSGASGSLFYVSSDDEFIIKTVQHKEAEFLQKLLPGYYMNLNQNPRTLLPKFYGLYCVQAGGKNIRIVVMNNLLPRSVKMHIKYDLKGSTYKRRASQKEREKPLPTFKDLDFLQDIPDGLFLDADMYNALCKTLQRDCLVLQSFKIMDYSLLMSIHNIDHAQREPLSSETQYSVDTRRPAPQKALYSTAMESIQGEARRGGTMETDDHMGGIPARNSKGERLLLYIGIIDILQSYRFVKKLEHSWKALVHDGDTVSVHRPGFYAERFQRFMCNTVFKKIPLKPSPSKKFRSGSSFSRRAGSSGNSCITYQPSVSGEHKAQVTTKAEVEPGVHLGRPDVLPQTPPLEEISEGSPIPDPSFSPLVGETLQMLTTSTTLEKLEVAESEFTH
smiles,measurement,setting,value
COc1cc(N(C)c2ccnc3ccc(C(F)(F)F)cc23)cc(OC)c1OC,% binding,[1],90%
Nc1cnc(N2CCc3cc(S(=O)(=O)Nc4c(F)cc(Cl)cc4F)cc(N4CCCC4=O)c32)nc1 [TP-020n],% of inhibition,[2],-0.37%
O=C(NOC[C@H](O)CO)c1ccc(F)c(F)c1Nc1ccc(I)cc1F,% of control,[3],89%
same,% of control,[4],69%
Cc1cc([C@@H](C)Nc2ccccc2C(=O)O)c2nc(N3CCOCC3)cc(=O)n2c1 [AZD-6482],% of control,[5],100%
same,% of control,[6],97%
COc1cc(Nc2nc(C)cc(-c3cnn4nc(OC)ccc34)n2)cc(C(F)(F)F)c1,% of control,[7],73%
same,% of control,[8],86%
N#Cc1cccc(-c2c[nH]c3ncnc(N4CCOCC4)c23)c1,% of control,[9],100%
CN1Cc2nccc(-c3cn(C)nc3-c3ccc(F)cc3)c2C1=O,% of inhibition,[10],42%
CNC(=O)Nc1ccc(-c2nc(N3CC4CCC(C3)O4)c3cnn(C4CCC5(CC4)OCCO5)c3n2)cc1,% of inhibition,[11],11%
same,% of control,[12],100%
O[C@H]1CC[C@H](Nc2ncc3nc(Nc4c(F)cc(F)cc4F)n([C@H]4CCOC4)c3n2)CC1,% of control,[13],75%
CC[C@@H]1[C@H](F)C(=O)N[C@@H]1COc1nccc2cc(C(N)=O)c(OC)cc12 [ZIMLOVISERTIB],% of inhibition,[14]; at 0.01 µM,19.6%
same,% of inhibition,[14]; at 0.04 µM,-3.8%
same,% of inhibition,[14]; at 0.2 µM,-4.9%
same,% of inhibition,[14]; at 1 µM,-9.2%
same,% of inhibition,[14]; at 5 µM,21.8%
same,% of inhibition,[15]; at 0.01 µM,-0.4%
same,% of inhibition,[15]; at 0.04 µM,-2.4%
same,% of inhibition,[15]; at 0.2 µM,-2.5%
same,% of inhibition,[15]; at 1 µM,-1.4%
same,% of inhibition,[15]; at 5 µM,-30.3%
CN(C)CCOc1ccc(-c2nc(-c3ccncc3)c(-c3ccc4c(c3)CC/C4=N\O)[nH]2)cc1,% of control,[16],79%
same,% of control,[17],76%
same,% of control,[18],100%
